Test results reported in the supplement of paper PMC10307832.

How the values were obtained:
Experiment in all cases: relative viability (nuclei count vs DMSO), 5 days (fraction); higher = more cells survive
[1] = compound: CN(C)CC1=CC(=CC=C1)N=C(C2=CC=CC=C2)C3=C(NC4=C3C=CC(=C4)C(=O)N(C)C)O
In short: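 Hoechst staining, done together with fixation and permeabilisation, marked nuclei for 4× imaging and MetaXpress counting. This followed 5 days without medium change after lung cancer cell lines, kept overnight at 37 °C in 1536-well plates, were pinned with five library-drug doses (not always all listed) spaced by √10 on vehicle-anchored plates. Viability is the ratio of treated-well to vehicle-well nuclei, expressed as a median across plates. Plates passed only at control CV below 25% with at least one doubling.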

[2] = compound: CN(C)CC1=CC(=CC=C1)N=C(C2=CC=CC=C2)C3=C(NC4=C3C=CC(=C4)C(=O)N(C)C)O + CC1(C)CCC(c2ccc(Cl)cc2)=C(CN2CCN(c3ccc(C(=O)NS(=O)(=O)c4ccc(N[C@H](CCN5CCOCC5)CSc5ccccc5)c(S(=O)(=O)C(F)(F)F)c4)cc3)CC2)C1 [Navitoclax] (partner 0.5 µM)
In short: (§1)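 Medians of duplicate plates are given as relative viability. That measure is the nuclei count in treated wells divided by the count in vehicle wells. Counts were taken on 4× images of lung cancer cell lines in 1536-well plates, 5 days after pin-tool dosing the day after seeding with one drug alone or a fixed anchor-drug dose plus five library-drug doses (not always all listed) in √10 steps.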

[3] = compound: CN(C)CC1=CC(=CC=C1)N=C(C2=CC=CC=C2)C3=C(NC4=C3C=CC(=C4)C(=O)N(C)C)O + Cc1cc(Nc2cc(N3CCN(C)CC3)nc(Sc3ccc(NC(=O)C4CC4)cc3)n2)n[nH]1 [Tozasertib] (partner 0.1 µM)
In short: as §1

[4] = compound: CN(C)CC1=CC(=CC=C1)N=C(C2=CC=CC=C2)C3=C(NC4=C3C=CC(=C4)C(=O)N(C)C)O + N=C(N)NC(=N)NCCc1ccccc1 [Phenformin] (partner 250 µM)
In short: as §1

Row | Cell Line | relative viability ([1]; 0.08 µM) | relative viability ([1]; 0.253 µM) | relative viability ([1]; 0.8 µM) | relative viability ([1]; 2.53 µM) | relative viability ([1]; 8 µM) | relative viability ([2]; first compound 0.08 µM) | relative viability ([2]; first compound 0.253 µM) | relative viability ([2]; first compound 0.8 µM) | relative viability ([2]; first compound 2.53 µM) | relative viability ([2]; first compound 8 µM) | relative viability ([3]; first compound 0.08 µM) | relative viability ([3]; first compound 0.253 µM) | relative viability ([3]; first compound 0.8 µM) | relative viability ([3]; first compound 2.53 µM) | relative viability ([3]; first compound 8 µM) | relative viability ([4]; first compound 0.08 µM) | relative viability ([4]; first compound 0.253 µM) | relative viability ([4]; first compound 0.8 µM) | relative viability ([4]; first compound 2.53 µM) | relative viability ([4]; first compound 8 µM)
1 | LOU-NH91 | 0.954 | 1.03 | 0.789 | 0.96 | 0.913 | 0.756 | 0.687 | 0.548 | 0.653 | 0.638 | 0.68 | 0.673 | 0.54 | 0.642 | 0.629 | 0.697 | 0.652 | 0.548 | 0.714 | 0.699
2 | LU99A | 0.893 | 0.934 | 0.966 | 0.885 | 0.87 | 0.827 | 0.581 | 0.879 | 0.781 | 0.882 | 0.312 | 0.3 | 0.384 | 0.22 | 0.198 | 0.737 | 0.874 | 0.862 | 0.655 | 0.757
3 | LXF-289 | 1.01 | 0.955 | 0.993 | 0.971 | 0.955 | 0.959 | 0.911 | 0.946 | 0.945 | 0.809 | 0.174 | 0.19 | 0.137 | 0.159 | 0.197 | 0.499 | 0.489 | 0.518 | 0.518 | 0.473
4 | NCI-H23 | 1.09 | 1.03 | 1.06 | 1.02 | 0.815 | 0.9 | 0.911 | 0.884 | 0.99 | 0.732 | 0.355 | 0.454 | 0.413 | 0.411 | 0.366 | 0.796 | 0.781 | 0.787 | 0.764 | 0.691
5 | NCI-H322M | 0.823 | 0.996 | 0.794 | 0.75 | 0.651 | 1.18 | 1.13 | 1.07 | 1.06 | 1.15 | 0.432 | 0.42 | 0.407 | 0.449 | 0.317 | 0.685 | 0.801 | 0.669 | 0.631 | 0.551
6 | NCI-H441 | 1.03 | 1.14 | 1.2 | 0.984 | 0.923 | 0.632 | 0.391 | 0.619 | 0.647 | 0.565 | 0.625 | 0.603 | 0.67 | 0.634 | 0.588 | 0.828 | 0.816 | 0.784 | 0.878 | 0.886
7 | NCI-H460 | 0.981 | 1.04 | 1.04 | 0.933 | 1.01 | 1.05 | 1.13 | 1.07 | 1.05 | 1.05 | 0.292 | 0.574 | 0.62 | 0.426 | 0.397 | 0.592 | 0.491 | 0.558 | 0.43 | 0.449
8 | NCI-H520 | 0.879 | 0.958 | 1.01 | 0.932 | 0.881 | 1.04 | 1.23 | 1.07 | 1.05 | 0.953 | 0.45 | 0.373 | 0.425 | 0.454 | 0.386 | 0.477 | 0.564 | 0.508 | 0.429 | 0.347
9 | NCI-H596 | 1.05 | 0.973 | 0.975 | 1.01 | 0.882 | 0.967 | 0.93 | 0.911 | 0.977 | 0.83 | 0.898 | 0.851 | 0.826 | 0.847 | 0.906 | 0.693 | 0.625 | 0.769 | 0.806 | 0.742
10 | NCI-H647 | 0.997 | 0.864 | 0.888 | 0.909 | 0.78 | 1.15 | 0.962 | 1.34 | 0.916 | 0.976 | 0.262 | 0.362 | 0.263 | 0.356 | 0.235 | 0.521 | 0.539 | 0.463 | 0.555 | 0.318
11 | NCI-H727 | 0.921 | 0.962 | 0.891 | 1.02 | 0.821 | 0.574 | 0.428 | 0.371 | 0.471 | 0.498 | 0.361 | 0.721 | 0.608 | 0.647 | 0.486 | 0.595 | 0.474 | 0.53 | 0.578 | 0.573
12 | NCI-H838 | 1 | 0.976 | 0.977 | 0.902 | 0.785 | 1.22 | 1.16 | 1.2 | 1.07 | 0.985 | 0.276 | 0.27 | 0.274 | 0.264 | 0.268 | 0.57 | 0.584 | 0.585 | 0.537 | 0.503
13 | NCI-H1355 | 1.03 | 0.992 | 0.836 | 0.993 | 0.979 | 1.01 | 0.87 | 0.836 | 0.93 | 0.866 | 0.551 | 0.616 | 0.414 | 0.539 | 0.428 | 0.483 | 0.463 | 0.421 | 0.421 | 0.392
14 | NCI-H1395 | 0.87 | 0.976 | 1.04 | 0.774 | 0.875 | 1.23 | 1.13 | 1.22 | 0.965 | 1.12 | 0.85 | 0.831 | 0.789 | 0.746 | 0.771 | 0.377 | 0.488 | 0.465 | 0.417 | 0.417
15 | NCI-H1437 | 1.05 | 0.977 | 1.04 | 1.02 | 1.05 | 1.2 | 1.08 | 1.09 | 1.06 | 1.12 | 0.431 | 0.443 | 0.37 | 0.387 | 0.4 | 0.269 | 0.298 | 0.335 | 0.349 | 0.36
